Reference: patent US20020132802A1, “Cytoprotective polycyclic compounds” (Washington Univeristy, priority 2000, published 2002)
Like-named read-outs stand apart in the source and are kept apart here.

Tested on: HT-22 cells
Assay: HT-22 Cell Neuroprotection Assay (glutamate-induced cell death, calcein AM viability)
Format: cell-based, murine
Settings: about 16 h exposure
Method: Method: HT-22 Cell Neuroprotection Assay
HT-22 cells (immortalized hippocampal neurons of murine origin) were maintained in DMEM media (Life Technologies, Inc., Gaitherburg, Md.) supplemented with 10% charcoal-stripped FBS (HyClone Laboratories, Inc., Logan, Utah) and 20 μg/mL gentamycin, according to standard culture conditions.
Cells were plated at a density of 5,000 cells/well in clear-bottomed Nunc 96-well plates (Fisher Scientific, Orlando, Fla.) and allowed to incubate overnight. Steroids dissolved in DMSO were added at concentrations ranging from 0.01-10 μM and were co-administered with glutamate (10 mM or 20 mM). DMSO was used at concentrations of 0.1% vol/vol as a vehicle control and had no discernible effect on cell viability. After about 16 h of glutamate exposure, cells were rinsed with PBS, pH 7.4, and viability was assessed by the addition of 25 μM calcein AM (Molecular Probes, Inc., Eugene, Oreg.) in PBS for 15 min at room temperature. Fluorescence was determined (excitation 485 nm, emission 530 nm) using a fluorescence FL600 microplate reader (Biotek, Winooski, Vt.). Cells that were lysed by addition of methanol were used for blank readings. All data were normalized to % cell death, as calculated by (control value −insult value)/control value×100.

Structure (SMILES) | EC50 (Mus musculus, co-administered with 10 mM glutamate, read-out: Steroid concentration needed to protect 50% of neurons killed by 10 mM Glutamate ED50) [µM] | EC50 (co-administered with 10 mM glutamate, read-out: Steroid concentration needed to protect 50% of neurons killed by 10 mM Glutamate ED50) [µM] | EC50 (co-administered with 20 mM glutamate, read-out: Steroid concentration needed to protect 50% of neurons killed by 20 mM Glutamate ED50) [µM]
C[C@]12CC[C@@H]3c4ccc(O)cc4CC[C@H]3[C@@H]1CCC2=O [Estrone, estrone, reference compound] | 3.03 |  | 
C[C@@]12CC=C3c4ccc(O)cc4CC[C@@H]3[C@H]1CC[C@H]2O [ZYC-12] |  | 0.53 | 1.43
